Test results published in patent publication US20250387410A1, “TREATMENT OF ANTI-VEGF REFRACTORY OPHTHALMIC RETINAL EYE CONDITIONS” (Eye Co Pty Ltd., priority 2022, published 2025).
Entries after “also recorded” stand apart in the source; their conditions may differ.

What was measured:
[1] = system: Il-1b-stimulated MIO-M1 cells; assay: Co-incubation with selective receptor antagonists in Il-1b-stimulated MIO-M1 cells; format: cell-based, human; details: co-incubation with FA + IL-1β, compared to Il1b and FA alone
Experimental: FIG. 3 Contribution of glucocorticoid and mineralocorticoid receptor signalling to the anti-inflammatory effect of FA in vitro.
IL-1β and TNF-α were administered to MIO-M1 cells to initiate an inflammatory response in order to test the anti-inflammatory properties of the selected corticosteroids. MIO-M1 cells were grown to a cell density of 50,000 cells per well in a 24 well plate using growth media and foetal bovine serum as described (Section 2.1.1). MIO-M1 cells were challenged with either 1 ng/μl of IL-1β or TNF-α (R&D Systems, MN, USA). Experimental wells were treated with either 1 μg/μl FA, TA or Dexamethasone. Twelve hours post addition, growth medium was removed from each well and replaced with 860 μl of TRIzol (Thermo Fisher Scientific, MA, USA), agitated approximately 20 times and then placed in a clean 1.5 ml Eppendorf tube to extract ribonucleic acid (RNA).
Following purification of RNA, cDNA was synthesized using the Bioline Tetro kit (Bioline, Australia) as per the manufacturer's instructions. Quantitative Real Time Polymerase Chain Reaction (QRT-PCR) was undertaken to profile gene expression changes in animal and cell culture samples. TaqMan hydrolysis probes (Applied Biosystems, USA) and Gene Expression Master Mix (Applied Biosystems, USA) were used. A clear 384 well plate (Applied Biosystems, USA) was used with each biological sample plated in duplicate. A reaction mixture per sample was set up and included 0.5 μl cDNA, 4 μl Rnase Free Water, 5 μl Gene Expression Master Mix and 0.5 μl Taqman Primer Probe (Thermo Fisher Scientific), as listed in Table 2.5. The amplification of each sample was undertaken using a QuantStudio 12K Flex QRT-PCR machine (Applied Biosystems, USA). GAPDH was used as the reference gene using the comparative cycle threshold (Ct) method (ΔΔCt), as it is known not to change expression following retinal photo-oxidative damage. Data was analysed using the QuantStudio 12K Flex Software (Applied Biosystems, USA).

MIO-M1 cells = assay: MTT assay, cell viability of MIO-M1 cells; format: cell-based, human
Text: (§1) The immortalised retinal cells used were as follows: MIO-M1 cells (Muller cell-derived; Müller 1 Moorefields, Institute of Ophthalmology, Dr A. Limb, Institute of Ophthalmology, University College, UK); ARPE19 (RPE-derived; ATCC CRL-2302, American Tissue Culture Collection, VA, USA); and 661W cells (photoreceptor-like derived; kindly gifted by Dr Muayyad R. Al-Ubaidi, Department of Cell Biology, University of Oklahoma Health Sciences Centre, Oklahoma City, OK, USA). Cells were authenticated and validated from Cell Bank Australia.
(§2) The immortalised retinal cell lines MIO-M1, 661W and ARPE19 were used to undertake the MTT assay to assess cell metabolic activity, based on the cell's availability of NAPDH. Treatments included exposure to one of FA (10-0.01 μg/μl, provided by Professor Ben Boyd, Monash University, Australia), TA (10-0.01 μg/p, Honeywell, USA) and Dexamethasone (10-0.0001 μg/μl, Sigma-Aldrich, MO, USA). All corticosteroids used in vitro were dissolved in 20% dimethyl sulfoxide (DMSO) (Sigma-Aldrich, MO, USA) and ultrapure endotoxin 0.1M PBS (Thermo Fisher Scientific, MA, USA). At the 12-hour time point following addition of the corticosteroid, 10p of MTT reagent (Roche, Switzerland) was added to each well. To protect against light, plates were wrapped in foil and stored in the dark at 37° C. for 4 hours at 5.0% CO2. Cells were monitored using a bright field Zeiss Axiovert 200 inverted microscope (Carl Zeiss Meditec, Dublin, CA. USA) for formation of insoluble purple formazan precipitate crystals in viable cells. Subsequently 100p of MTT solubilisation solution was added and once again incubated in darkness at 37° C., 5.0% CO2 for 24 hours. Quantification of the MTT assay was performed by measuring the absorbance at 570 nm using Tecan Infinite® 200 PRO (Tecan, Mannedorf, Switzerland).

ARPE19 cells = assay: MTT assay, cell viability of ARPE19 cells; format: cell-based, human
Text: as §1, §2

661W cells = assay: MTT assay, cell viability of 661W cells; format: cell-based, human
Text: as §1, §2

[2] = system: C57BL/6J mice, photo-oxidative damage (PD); assay: Photo-oxidative damage (PD) model of retinal degeneration, intravitreal injection; format: in vivo, mouse
Text: All experiments conducted were in accordance with the ARVO Statement for Use of Animals in Ophthalmic and Vision Research, and with approval from the ANU Animal Experimentation Ethics Committee (AEEC, protocol #A2014/56). C57BL/6J mice aged 60 post-natal days were used in this study. Animals were born, reared and held under dim light conditions (5 lux) prior to photo-oxidative damage.
In vivo cross-sectional and fundus images of the mouse retina were acquired using Optical Coherence Tomography (OCT).
Intravitreal injections were performed on C57BL/6J mice aged 60 post-natal days. Treatments included exposure to FA or TA dissolved in Suspension (comprised of 0.5% w/v carboxymethyl cellulose and 0.4% v/v Tween 80). The final concentration of drug in the vitreous chamber is estimated to be as 1 mg/ml.
Age-matched C57BL/6J mice (60 post-natal days) were exposed to continuous 100K lux white LED light for 5 days with access to food and water ad libitum. During this time, 1% atropine sulphate (Minims 1% atropine sulphate eye drops; Bausch and Lomb, USA) was administered to both eyes twice daily to dilate the pupils. Animals were subsequently euthanised with carbon dioxide (CO2).
Electroretinography (ERG) was used to assess the retinal function response of rodents to full-field flash stimuli under scotopic conditions. Dim-reared control and photo-oxidative damaged animals were used, using known methods.
Animals were dark-adapted overnight before the commencement of ERG experiments. Animals were anaesthetised as previously described, and all retinal recordings were undertaken in a dark room with minimal red light source.
Terminal deoxynucleotidyl transferase (Tdt) dUTP nick end labelling (TUNEL) is an established technique used to detect apoptotic and necrotic cells.
The retina was evenly divided into 8 quadrants. Each quadrant was viewed using a confocal microscope (LSM 5, Zeiss, Germany) and TUNEL^+ and IBA1^+ cells were identified and counted. Data were graphed and analysed using Prism 6 software (GraphPad Software, CA, USA).

[3] = 10 ug/uL, compared to DMSO-only group
[4] = 10-0.01 μg/μl, 12 h, compared to DMSO-only group

## CCC[C@@H]1CC2=CC(=O)CC[C@]2(C)[C@H]2CC[C@@]3(C)[C@@H](CC[C@@]3(O)CCC(=O)[O-])[C@H]12.[K+] [RU28318]
[1]
  effect of receptor antagonist on FA-mediated suppression of Ccl2, Il-6, and Il-8: did not significantly alter

## N#Cc1ccc([C@H]2CCCC[C@H]2O)cc1C(F)(F)F [PF998425]
[1]
  effect of receptor antagonist on FA-mediated suppression of Ccl2, Il-6, and Il-8: did not alter

## C[C@]12CC[C@@H]3c4ccc(O)cc4C[C@@H](CCCCCCCCC[S+]([O-])CCCC(F)(F)C(F)(F)F)[C@H]3[C@@H]1CC[C@@H]2O (some centres unmarked) [ICI182780]
[1]
  effect of receptor antagonist on FA-mediated suppression of Ccl2, Il-6, and Il-8: did not alter

## CC#C[C@]1(O)CC[C@H]2[C@@H]3CCC4=CC(=O)CCC4=C3[C@@H](c3ccc(N(C)C)cc3)C[C@@]21C [RU486, Mifepristone]
[1]
  effect of receptor antagonist on FA-mediated suppression of Ccl2, Il-6, and Il-8: negated; also recorded: completely abrogate

## CC1(C)O[C@@H]2C[C@H]3[C@@H]4CCC5=CC(=O)C=C[C@]5(C)[C@@]4(F)[C@@H](O)C[C@]3(C)[C@]2(C(=O)CO)O1 [TA, triamcinolone acetonide]
MIO-M1 cells; 1 μg/μl
  viability of MIO-M1 cells at 1 μg/μl: does not significantly alter cell viability
MIO-M1 cells; [3]
  viability of MIO-M1 cells at the highest concentration: slight reduction
MIO-M1 cells; [4]
  viability of MIO-M1 cells (MTT assay): do not induce toxicity; also recorded: did not have significant effect
ARPE19 cells; 1 μg/μl
  viability of ARPE19 cells at 1 μg/μl: does not significantly alter cell viability
ARPE19 cells; [4]
  viability of ARPE-19 cells (MTT assay): do not induce toxicity; also recorded: did not have significant effect
661W cells; 1 μg/μl
  viability of 661W cells at 1 μg/μl: does not significantly alter cell viability
661W cells; [3]
  viability of 661W cells at the highest concentration: slight reduction
661W cells; [4]
  viability of 661W cells (MTT assay): do not induce toxicity; also recorded: did not have significant effect
[2]; 5 days PD, intravitreal, scotopic, versus controls
  a-wave and b-wave ERG responses: indistinguishable from PD controls/untreated animals
[2]; intravitreal injection, mice
  photoreceptor survival in PD: no significant effect
